# Measurements taken from ChEMBL document CHEMBL1122267, “Pyridazinones. 3. Synthesis, antisecretory, and antiulcer activities of 2-cyanoguanidine derivatives” (1983).
# Activity calls are given as the source filed them. No cut-off for these calls is given here.
# What was measured:
# Rattus norvegicus [1] = test: Percent inhibition of gastric antisecretory activity in the 4 hr pylorus-ligated rat to that of control at a dose of 100 mg/kg; not statistically significant; format: functional; conditions: Stomach
# Rattus norvegicus [2] = test: Compound was evaluated for antiulcer activity in rats after oral administration. (stress ulcer); NS means not statistically significant; format: functional, organism-based
# Rattus norvegicus [3] = species: Rattus norvegicus; test: Effective dose for 50 percent inhibition of gastric antisecretory activity in the 4 hr pylorus-ligated rat; format: functional; conditions: Stomach
# Rattus norvegicus [4] = test: Percent inhibition of gastric antisecretory activity in the 4 hr pylorus-ligated rat to that of control at a dose of 100 mg/kg; format: functional; conditions: Stomach, read-out: Inhibition
# Rattus norvegicus [5] = test: Compound was evaluated for antiulcer activity due to stress in rats after oral administration; not statistically significant; format: functional, organism-based
# Rattus norvegicus [6] = test: Compound was evaluated for antiulcer activity in rats due to stress after oral administration; format: functional
SMILES,inhibition in vivo at 100 mg/kg (Rattus norvegicus [1]),ED50 (Rattus norvegicus [2]),ED50 (Rattus norvegicus [3]),inhibition in vivo at 100 mg/kg (Rattus norvegicus [4]),ED50 (Rattus norvegicus [5]),ED50 (Rattus norvegicus [6])
C/N=C(\NC#N)NCCSCn1nc(N2CCOCC2)ccc1=O,-12.5%,inactive,–,–,–,–
C/N=C(\NC#N)NCCSCn1nc(-c2ccc(C)cc2)ccc1=O,–,–,< 53.8 mg/kg,62.5%,–,–
CC/N=C(\NC#N)NCCSCn1nc(C)ccc1=O,–,–,> 100 mg/kg,26.7%,–,–
C/N=C(\NC#N)NCCSCn1nc(-c2ccc(Cl)cc2)ccc1=O,–,–,< 39.1 mg/kg,70.3%,–,–
C/N=C(\NC#N)NCCSCn1nc(N(C)C)ccc1=O,6.9%,–,–,–,–,–
C/N=C(\NC#N)NCCCCOCn1nc(-c2ccccc2)ccc1=O,–,–,> 100 mg/kg,32.8%,inactive,–
C/N=C(\NC#N)NCCSCCCn1nc(-c2ccccc2)ccc1=O,18.2%,–,–,–,–,> 100 mg/kg
CCC/N=C(\NC#N)NCCSCn1nc(-c2ccccc2)ccc1=O,–,–,> 100 mg/kg,37.3%,–,97.6 mg/kg
C/N=C(\NC#N)NCCCCn1nc(-c2ccccc2)ccc1=O,–,–,32.4 mg/kg,79%,–,38.5 mg/kg
C/N=C(\NC#N)NCCSCn1nc(C)ccc1=O,–,–,> 100 mg/kg,30%,–,> 100 mg/kg
C/N=C(\NC#N)NCCSCn1nc(-c2ccccc2)ccc1=O,–,–,< 30.5 mg/kg,83.3%,–,28.5 mg/kg
CC/N=C(\NC#N)NCCSCCn1nc(-c2ccccc2)ccc1=O,–,–,< 100 mg/kg,50.8%,–,–
CC/N=C(\NC#N)NCCSCCCn1nc(-c2ccccc2)ccc1=O,22.9%,–,–,–,–,–
CN/C(=N\CCSCc1nc[nH]c1C)NC#N [CIMETIDINE],–,–,60.3 mg/kg,80.6%,–,43.2 mg/kg
C/N=C(\NC#N)NCCSCCn1nc(-c2ccccc2)ccc1=O,–,–,< 80 mg/kg,58.3%,–,77.6 mg/kg
CC/N=C(\NC#N)NCCSCn1nc(-c2ccccc2)ccc1=O,–,–,< 100 mg/kg,50.1%,–,63.1 mg/kg
CCC/N=C(\NC#N)NCCSCCn1nc(-c2ccccc2)ccc1=O,–,–,> 100 mg/kg,33.5%,–,–
C/N=C(\NC#N)NCCOCn1nc(-c2ccccc2)ccc1=O,–,–,< 82.3 mg/kg,60.6%,–,> 100 mg/kg
C/N=C(\NC#N)NCCCOCn1nc(-c2ccccc2)ccc1=O,–,–,< 100 mg/kg,49.8%,inactive,–
